Experimental data: patent publication US11716992B2, “5A5B6C tricyclic spirolactone derivative, preparation method therefor and use thereof” (NANKAI UNIVERSITY, priority 2017, dated 2023)
Several values for one entry are separate records, joined by “and”; a condition that tells them apart may be missing. Equal entries are not always repeated.

test system: Alternaria solani; experiment: Fungicidal activity, fungicide growth rate method, AS; type: cell-based; settings: Alternaria solani, 50 μg/mL; read-out: fungicidal activity (growth inhibition rate), AS

Row | SMILES | inhibition at 50 µg/mL [%]
1 | C=CC[C@@H]1C[C@]2(O)CCO[C@@]23C[C@H](O)CC[C@H]13 [Zyj07-32] | > 60
2 | CC(=O)O[C@@]12C[C@H]3CC=CC[C@@]1(O3)[C@@H]1CC=CC[C@@H]1C2 [Zyj07-41-2] | 14
3 | C=CC[C@@H]1C[C@]2(O[Si](C)(C)CC=C)CCO[C@@]23C[C@H](O[Si](C)(C)CC=C)CC[C@H]13 [Zyj07-46] | 8

test system: Rhizoctonia cerealis; experiment: Fungicidal activity, fungicide growth rate method, RC; type: cell-based; settings: Ceratobasidium cereale, 50 μg/mL; read-out: fungicidal activity (growth inhibition rate), RC

Row | SMILES | inhibition at 50 µg/mL [%]
4 | C=CC[C@@H]1C[C@]2(O)CCO[C@@]23C[C@H](O)CC[C@H]13 [Zyj07-32] | 39
5 | C=CC[C@@H]1C[C@]2(O[Si](C)(C)CC=C)CCO[C@@]23C[C@H](O[Si](C)(C)CC=C)CC[C@H]13 [Zyj07-46] | 0

test system: Physalospora piricola; experiment: Fungicidal activity, fungicide growth rate method, PP; type: cell-based; settings: 50 μg/mL; read-out: fungicidal activity (growth inhibition rate), PP

Row | SMILES | inhibition at 50 µg/mL [%]
6 | CC(=O)O[C@@]12C[C@H]3CC=CC[C@@]1(O3)[C@@H]1CC=CC[C@@H]1C2 [Zyj07-41-2] | > 50
7 | C=CC[C@@H]1C[C@]2(O[Si](C)(C)CC=C)CCO[C@@]23C[C@H](O[Si](C)(C)CC=C)CC[C@H]13 [Zyj07-46] | 21

test system: Phytophthora infestans (Mont.) de Bary; experiment: microbe, parasite or virus in culture; type: cell-based; settings: Phytophthora infestans, read-out: fungicidal activity (growth inhibition rate), PI, 50 μg/mL

Row | SMILES | inhibition at 50 µg/mL [%]
8 | C=CC[C@@H]1C[C@]2(O)CCO[C@@]23C[C@H](O)CC[C@H]13 [Zyj07-32] | > 60
9 | CC(=O)O[C@@]12C[C@H]3CC=CC[C@@]1(O3)[C@@H]1CC=CC[C@@H]1C2 [Zyj07-41-2] | 25
10 | C=CC[C@@H]1C[C@]2(O[Si](C)(C)CC=C)CCO[C@@]23C[C@H](O[Si](C)(C)CC=C)CC[C@H]13 [Zyj07-46] | 21

test system: Apis mellifera ligustica Spin; experiment: not given; settings: dosage 2.73 μg a.i./bee

Row | SMILES | Death rate after 48 h (%)
11 | C=CC[C@@H]1C[C@]2(O)CCO[C@@]23C[C@H](O)CC[C@H]13 [Zyj07-32] | 10.0

same assay, conditions: dosage 2.73 μg a.i./bee; per replicate of 10 bees

Row | SMILES | Death number after 24 h | Death number after 48 h
12 | C=CC[C@@H]1C[C@]2(O)CCO[C@@]23C[C@H](O)CC[C@H]13 [Zyj07-32] | 0 and 2 | 0 and 2

same assay, conditions: dosage 8.70 μg a.i./bee

Row | SMILES | Death rate after 48 h (%)
13 | CC(=O)O[C@@]12C[C@H]3CC=CC[C@@]1(O3)[C@@H]1CC=CC[C@@H]1C2 [Zyj07-41-2] | 0

same assay, conditions: dosage 8.70 μg a.i./bee; per replicate of 10 bees

Row | SMILES | Death number after 24 h | Death number after 48 h
14 | CC(=O)O[C@@]12C[C@H]3CC=CC[C@@]1(O3)[C@@H]1CC=CC[C@@H]1C2 [Zyj07-41-2] | 0 | 0

same assay, conditions: dosage 10.0 μg a.i./bee

Row | SMILES | Death rate after 48 h (%)
15 | C=CC[C@@H]1C[C@]2(O)CCO[C@@]23C[C@H](O)CC[C@H]13 [Zyj07-32] | 5.0

same assay, conditions: dosage 10.0 μg a.i./bee; per replicate of 10 bees

Row | SMILES | Death number after 24 h | Death number after 48 h
16 | C=CC[C@@H]1C[C@]2(O)CCO[C@@]23C[C@H](O)CC[C@H]13 [Zyj07-32] | 0 | 1 and 0

same assay, conditions: dosage 13.5 μg a.i./bee

Row | SMILES | Death rate after 48 h (%)
17 | CC(=O)O[C@@]12C[C@H]3CC=CC[C@@]1(O3)[C@@H]1CC=CC[C@@H]1C2 [Zyj07-41-2] | 0

same assay, conditions: dosage 13.5 μg a.i./bee; per replicate of 10 bees

Row | SMILES | Death number after 24 h | Death number after 48 h
18 | CC(=O)O[C@@]12C[C@H]3CC=CC[C@@]1(O3)[C@@H]1CC=CC[C@@H]1C2 [Zyj07-41-2] | 0 | 0

test system: Caenorhabditis elegans; experiment: Insecticidal activity against Caenorhabditis elegans; type: in vivo; settings: Caenorhabditis elegans, 100 μg/mL; read-out: insecticidal activity, Caenorhabditis elegans

Row | SMILES | pest or weed control at 100 µg/mL [%]
19 | C=CC[C@@H]1C[C@]2(O)CCO[C@@]23C[C@H](O)CC[C@H]13 [Zyj07-32] | 20
20 | CC(=O)O[C@@]12C[C@H]3CC=CC[C@@]1(O3)[C@@H]1CC=CC[C@@H]1C2 [Zyj07-41-2] | 12
21 | C=CC[C@@H]1C[C@]2(O[Si](C)(C)CC=C)CCO[C@@]23C[C@H](O[Si](C)(C)CC=C)CC[C@H]13 [Zyj07-46] | 10

test system: Sclerotinia sclerotiorum; experiment: Fungicidal activity, fungicide growth rate method, SS; type: cell-based; settings: Sclerotinia sclerotiorum, 50 μg/mL

Row | SMILES | inhibition at 50 µg/mL [%]
22 | C=CC[C@@H]1C[C@]2(O[Si](C)(C)CC=C)CCO[C@@]23C[C@H](O[Si](C)(C)CC=C)CC[C@H]13 [Zyj07-46] | > 50

test system: wheat Gibberella zeae; experiment: microbe, parasite or virus in culture; type: cell-based; settings: Fusarium graminearum, read-out: fungicidal activity (growth inhibition rate), GZ, 50 μg/mL

Row | SMILES | inhibition at 50 µg/mL [%]
23 | C=CC[C@@H]1C[C@]2(O)CCO[C@@]23C[C@H](O)CC[C@H]13 [Zyj07-32] | 33
24 | CC(=O)O[C@@]12C[C@H]3CC=CC[C@@]1(O3)[C@@H]1CC=CC[C@@H]1C2 [Zyj07-41-2] | 20
25 | C=CC[C@@H]1C[C@]2(O[Si](C)(C)CC=C)CCO[C@@]23C[C@H](O[Si](C)(C)CC=C)CC[C@H]13 [Zyj07-46] | 3

test system: Botrytis cinerea; experiment: Fungicidal activity, fungicide growth rate method, BC; type: cell-based; settings: Botrytis cinerea, 50 μg/mL; read-out: fungicidal activity (growth inhibition rate), BC

Row | SMILES | inhibition at 50 µg/mL [%]
26 | C=CC[C@@H]1C[C@]2(O)CCO[C@@]23C[C@H](O)CC[C@H]13 [Zyj07-32] | 23
27 | CC(=O)O[C@@]12C[C@H]3CC=CC[C@@]1(O3)[C@@H]1CC=CC[C@@H]1C2 [Zyj07-41-2] | 34
28 | C=CC[C@@H]1C[C@]2(O[Si](C)(C)CC=C)CCO[C@@]23C[C@H](O[Si](C)(C)CC=C)CC[C@H]13 [Zyj07-46] | > 50

test system: Pellicularia sasakii; experiment: Fungicidal activity, fungicide growth rate method, PS; type: cell-based; settings: 50 μg/mL; read-out: fungicidal activity (growth inhibition rate), PS

Row | SMILES | inhibition at 50 µg/mL [%]
29 | C=CC[C@@H]1C[C@]2(O)CCO[C@@]23C[C@H](O)CC[C@H]13 [Zyj07-32] | 16
30 | CC(=O)O[C@@]12C[C@H]3CC=CC[C@@]1(O3)[C@@H]1CC=CC[C@@H]1C2 [Zyj07-41-2] | 41
31 | C=CC[C@@H]1C[C@]2(O[Si](C)(C)CC=C)CCO[C@@]23C[C@H](O[Si](C)(C)CC=C)CC[C@H]13 [Zyj07-46] | 22

test system: Cercospora arachidicola; experiment: Fungicidal activity, fungicide growth rate method, CA; type: cell-based; settings: Mycosphaerella arachidis, 50 μg/mL; read-out: fungicidal activity (growth inhibition rate), CA

Row | SMILES | inhibition at 50 µg/mL [%]
32 | C=CC[C@@H]1C[C@]2(O)CCO[C@@]23C[C@H](O)CC[C@H]13 [Zyj07-32] | > 50
33 | CC(=O)O[C@@]12C[C@H]3CC=CC[C@@]1(O3)[C@@H]1CC=CC[C@@H]1C2 [Zyj07-41-2] | > 50
34 | C=CC[C@@H]1C[C@]2(O[Si](C)(C)CC=C)CCO[C@@]23C[C@H](O[Si](C)(C)CC=C)CC[C@H]13 [Zyj07-46] | 14

test system: Mythimna separate (Walker); experiment: Insecticidal activity against Mythimna separate (Walker); type: in vivo; settings: Mythimna, 100 μg/mL; read-out: insecticidal activity, Mythimna separate (Walker)

Row | SMILES | pest or weed control at 100 µg/mL [%]
35 | C=CC[C@@H]1C[C@]2(O)CCO[C@@]23C[C@H](O)CC[C@H]13 [Zyj07-32] | 0
36 | CC(=O)O[C@@]12C[C@H]3CC=CC[C@@]1(O3)[C@@H]1CC=CC[C@@H]1C2 [Zyj07-41-2] | 10
37 | C=CC[C@@H]1C[C@]2(O[Si](C)(C)CC=C)CCO[C@@]23C[C@H](O[Si](C)(C)CC=C)CC[C@H]13 [Zyj07-46] | 20

test system: Ostrinia furnacalis; experiment: Insecticidal activity against Ostrinia furnacalis; type: in vivo; settings: Ostrinia furnacalis; 100 μg/mL; read-out: insecticidal activity, Ostrinia furnacalis

Row | SMILES | pest or weed control at 100 µg/mL [%]
38 | C=CC[C@@H]1C[C@]2(O)CCO[C@@]23C[C@H](O)CC[C@H]13 [Zyj07-32] | 0
39 | CC(=O)O[C@@]12C[C@H]3CC=CC[C@@]1(O3)[C@@H]1CC=CC[C@@H]1C2 [Zyj07-41-2] | 0
40 | C=CC[C@@H]1C[C@]2(O[Si](C)(C)CC=C)CCO[C@@]23C[C@H](O[Si](C)(C)CC=C)CC[C@H]13 [Zyj07-46] | 0

test system: Tobacco Mosaic Virus; experiment: Anti-TMV inactivation activity on tobacco plants; type: in vivo; parameters: concentration or dose not given beside the values; settings: compound mixed with TMV solution 30 minutes, lesions checked three days later

Row | SMILES | TMV inactivation (anti-TMV activity) [%]
41 | C=CC[C@@H]1C[C@]2(O)CCO[C@@]23C[C@H](O)CC[C@H]13 [Zyj07-32] | 9
42 | CC(=O)O[C@@]12C[C@H]3CC=CC[C@@]1(O3)[C@@H]1CC=CC[C@@H]1C2 [Zyj07-41-2] | 18

test system: Helicoverpa armigera (Hübner); experiment: Insecticidal activity against Helicoverpa armigera (Hübner); type: in vivo; settings: Helicoverpa armigera; 100 μg/mL; read-out: insecticidal activity, Helicoverpa armigera (Hübner)

Row | SMILES | pest or weed control at 100 µg/mL [%]
43 | C=CC[C@@H]1C[C@]2(O)CCO[C@@]23C[C@H](O)CC[C@H]13 [Zyj07-32] | 0
44 | CC(=O)O[C@@]12C[C@H]3CC=CC[C@@]1(O3)[C@@H]1CC=CC[C@@H]1C2 [Zyj07-41-2] | 15
45 | C=CC[C@@H]1C[C@]2(O[Si](C)(C)CC=C)CCO[C@@]23C[C@H](O[Si](C)(C)CC=C)CC[C@H]13 [Zyj07-46] | 5
